Source: ChEMBL document CHEMBL1150765, “Clavatadine A, a natural product with selective recognition and irreversible inhibition of factor XIa” (J Med Chem, 2008)

Experiments:
[1] = target: Coagulation factor IX (Homo sapiens) (UniProt P00740); assay: Inhibition of factor 9a at 222 uM
Coagulation factor XI = Coagulation factor XI (Homo sapiens, UniProt P03951); assay: Inhibition of factor 11a
Coagulation factor XI, sequence (P03951 19-387 limits assumed): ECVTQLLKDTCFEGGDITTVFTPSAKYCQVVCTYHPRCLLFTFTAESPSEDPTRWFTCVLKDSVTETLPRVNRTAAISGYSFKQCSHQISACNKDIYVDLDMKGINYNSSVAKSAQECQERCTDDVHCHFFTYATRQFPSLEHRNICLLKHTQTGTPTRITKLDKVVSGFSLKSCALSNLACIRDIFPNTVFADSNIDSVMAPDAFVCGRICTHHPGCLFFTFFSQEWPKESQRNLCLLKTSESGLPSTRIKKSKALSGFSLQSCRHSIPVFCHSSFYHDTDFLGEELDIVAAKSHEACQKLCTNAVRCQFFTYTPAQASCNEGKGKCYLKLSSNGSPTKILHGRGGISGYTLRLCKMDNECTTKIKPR
Coagulation factor XI, sequence (P03951 388-625 limits assumed): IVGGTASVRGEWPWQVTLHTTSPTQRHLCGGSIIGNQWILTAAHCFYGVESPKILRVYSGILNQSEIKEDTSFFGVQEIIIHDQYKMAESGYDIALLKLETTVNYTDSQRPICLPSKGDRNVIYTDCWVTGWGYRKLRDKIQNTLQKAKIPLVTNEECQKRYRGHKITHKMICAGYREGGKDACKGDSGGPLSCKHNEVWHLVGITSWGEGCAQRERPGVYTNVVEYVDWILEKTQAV

Coagulation factor IX (Homo sapiens), sequence (P00740 47-191 limits assumed): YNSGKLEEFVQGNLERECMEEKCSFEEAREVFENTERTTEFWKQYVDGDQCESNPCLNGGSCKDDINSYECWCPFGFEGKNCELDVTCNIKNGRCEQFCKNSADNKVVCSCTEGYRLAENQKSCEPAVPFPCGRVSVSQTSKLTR
Coagulation factor IX (Homo sapiens), sequence (P00740 227-461 limits assumed): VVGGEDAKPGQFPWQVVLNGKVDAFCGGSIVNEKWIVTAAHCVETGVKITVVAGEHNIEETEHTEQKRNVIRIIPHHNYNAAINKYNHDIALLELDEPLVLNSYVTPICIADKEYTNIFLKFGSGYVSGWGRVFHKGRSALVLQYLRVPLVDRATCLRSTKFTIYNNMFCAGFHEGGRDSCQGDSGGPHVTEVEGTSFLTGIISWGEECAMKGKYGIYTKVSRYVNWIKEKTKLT

N=C(N)NCCCCNC(=O)Oc1c(Br)cc(O)c(CC(=O)O)c1Br [CLAVATADINE A]
inhibition [1]: < 5%
IC50 (Coagulation factor XI): 1.3 µM

N=C(N)NCCCCNC(=O)Oc1cc(Br)c(O)c(Br)c1CC(N)=O [CLAVATADINE B]
inhibition [1]: < 5%
IC50 (Coagulation factor XI): 27 µM
